The structures appear in SMILES notation. “And” between values parts separate entries of the source, which are not always exact repeats. Identical values can stand only once. Like-named read-outs stand apart in the source and are kept apart here.

What all share (assay): CDK inhibition assay (microfluidic LabChip, IC50 format)
One test has as its target T1, CDK9-CYCLINT1 (Homo sapiens, UniProt P50750).
T1 construct: purchased Carna
It is filed as biochemical. As to conditions: read-out: CDK9 CyclinT1 IC50.

A further test deals with CDK7 CyclinH (Homo sapiens, UniProt P50613). It is filed as biochemical.
The target in another test is T2, CDK2-CYCLINA (Homo sapiens, UniProt P24941).
T2 construct: purchased Millipore
It is filed as biochemical. The settings on record: read-out: CDK2 CyclinA IC50.

In a further test the target is CDK4-CYCLIND1 (Homo sapiens, UniProt P11802). The settings on record: a second value in parentheses for some compounds.
The target of the next test is T3, CDK6-CYCLIND3 (Homo sapiens, UniProt Q00534).
T3 construct: purchased Carna
Type of test: biochemical. As to conditions: read-out: CDK6 CyclinD3 IC50.

Where [1] appears, read: CDK4 CyclinD1 IC50, Table 4b, lower part.

CDK4-CYCLIND1, sequence (P11802 whole entry): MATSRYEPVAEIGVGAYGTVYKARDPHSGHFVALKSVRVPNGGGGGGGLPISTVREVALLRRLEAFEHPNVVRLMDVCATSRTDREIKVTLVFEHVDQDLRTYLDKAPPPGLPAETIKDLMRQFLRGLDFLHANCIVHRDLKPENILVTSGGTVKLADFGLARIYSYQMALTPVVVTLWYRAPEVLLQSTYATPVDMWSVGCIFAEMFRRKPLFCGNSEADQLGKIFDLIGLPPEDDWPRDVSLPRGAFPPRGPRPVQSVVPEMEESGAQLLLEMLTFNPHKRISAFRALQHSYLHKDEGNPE
CDK4-CYCLIND1, sequence (P24385 whole entry partner): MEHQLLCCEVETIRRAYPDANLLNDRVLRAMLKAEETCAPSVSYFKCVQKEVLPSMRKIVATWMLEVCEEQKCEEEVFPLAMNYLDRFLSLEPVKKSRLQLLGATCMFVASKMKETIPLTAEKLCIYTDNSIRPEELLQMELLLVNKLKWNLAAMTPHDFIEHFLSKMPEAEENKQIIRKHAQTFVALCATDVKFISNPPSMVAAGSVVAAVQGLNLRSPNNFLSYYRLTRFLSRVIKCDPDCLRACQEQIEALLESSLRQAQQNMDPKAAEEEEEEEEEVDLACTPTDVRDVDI
CDK7 CyclinH, sequence (P50613 whole entry): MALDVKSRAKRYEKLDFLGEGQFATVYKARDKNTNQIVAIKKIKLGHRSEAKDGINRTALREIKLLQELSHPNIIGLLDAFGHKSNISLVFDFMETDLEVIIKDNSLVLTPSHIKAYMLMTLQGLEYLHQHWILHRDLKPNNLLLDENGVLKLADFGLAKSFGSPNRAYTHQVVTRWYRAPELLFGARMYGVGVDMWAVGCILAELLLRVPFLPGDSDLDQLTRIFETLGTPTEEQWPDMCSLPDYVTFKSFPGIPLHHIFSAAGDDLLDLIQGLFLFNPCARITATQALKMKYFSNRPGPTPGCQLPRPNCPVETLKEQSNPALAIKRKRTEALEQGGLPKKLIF
CDK7 CyclinH, sequence (P51946 whole entry partner): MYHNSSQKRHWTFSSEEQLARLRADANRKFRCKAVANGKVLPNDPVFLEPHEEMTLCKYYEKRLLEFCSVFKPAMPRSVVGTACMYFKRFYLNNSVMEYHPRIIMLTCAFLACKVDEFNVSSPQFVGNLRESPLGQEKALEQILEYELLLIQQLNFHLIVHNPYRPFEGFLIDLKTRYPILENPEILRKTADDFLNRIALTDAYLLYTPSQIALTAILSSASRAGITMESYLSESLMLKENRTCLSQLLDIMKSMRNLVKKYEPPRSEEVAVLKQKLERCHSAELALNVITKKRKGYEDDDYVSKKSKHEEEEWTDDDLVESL
CDK7 CyclinH, sequence (P51948 whole entry partner): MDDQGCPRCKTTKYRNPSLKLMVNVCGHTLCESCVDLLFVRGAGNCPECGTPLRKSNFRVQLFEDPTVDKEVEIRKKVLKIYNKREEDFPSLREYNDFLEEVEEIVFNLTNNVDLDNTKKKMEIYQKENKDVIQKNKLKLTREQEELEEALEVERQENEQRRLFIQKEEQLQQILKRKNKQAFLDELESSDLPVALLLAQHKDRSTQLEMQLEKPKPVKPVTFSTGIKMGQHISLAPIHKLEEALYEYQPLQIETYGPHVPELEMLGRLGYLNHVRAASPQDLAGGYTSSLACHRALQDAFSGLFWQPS
T1 sequence (P50750 whole entry): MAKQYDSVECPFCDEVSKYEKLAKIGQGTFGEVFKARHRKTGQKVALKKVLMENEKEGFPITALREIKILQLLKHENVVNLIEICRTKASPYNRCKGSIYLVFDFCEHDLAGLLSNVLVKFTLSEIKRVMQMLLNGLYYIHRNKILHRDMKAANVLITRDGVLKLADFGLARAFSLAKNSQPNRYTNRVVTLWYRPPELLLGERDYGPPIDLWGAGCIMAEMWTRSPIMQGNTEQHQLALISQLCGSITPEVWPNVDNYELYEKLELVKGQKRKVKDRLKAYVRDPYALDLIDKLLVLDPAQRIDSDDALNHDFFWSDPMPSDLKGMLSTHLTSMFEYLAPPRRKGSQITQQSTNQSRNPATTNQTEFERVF
T1 sequence (O60563 whole entry partner): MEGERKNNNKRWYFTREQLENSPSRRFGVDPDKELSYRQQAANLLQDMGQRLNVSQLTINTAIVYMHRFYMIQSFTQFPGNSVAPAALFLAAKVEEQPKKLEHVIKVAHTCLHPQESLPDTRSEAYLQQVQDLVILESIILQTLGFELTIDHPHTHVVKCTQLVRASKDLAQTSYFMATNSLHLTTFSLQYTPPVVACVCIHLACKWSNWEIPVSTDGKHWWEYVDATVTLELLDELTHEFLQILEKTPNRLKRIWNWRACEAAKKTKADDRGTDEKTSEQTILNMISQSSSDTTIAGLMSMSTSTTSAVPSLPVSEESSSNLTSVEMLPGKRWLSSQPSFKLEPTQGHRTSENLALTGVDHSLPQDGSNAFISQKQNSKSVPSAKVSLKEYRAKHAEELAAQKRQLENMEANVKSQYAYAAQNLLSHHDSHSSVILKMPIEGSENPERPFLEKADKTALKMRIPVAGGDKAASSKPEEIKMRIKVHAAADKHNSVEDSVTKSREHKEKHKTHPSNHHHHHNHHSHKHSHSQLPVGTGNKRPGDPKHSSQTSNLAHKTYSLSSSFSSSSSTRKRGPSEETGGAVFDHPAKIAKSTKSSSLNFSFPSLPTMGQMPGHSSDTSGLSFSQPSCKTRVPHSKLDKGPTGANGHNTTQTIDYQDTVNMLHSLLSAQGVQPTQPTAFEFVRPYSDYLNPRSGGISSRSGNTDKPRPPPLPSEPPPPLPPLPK
T3 sequence (Q00534 whole entry): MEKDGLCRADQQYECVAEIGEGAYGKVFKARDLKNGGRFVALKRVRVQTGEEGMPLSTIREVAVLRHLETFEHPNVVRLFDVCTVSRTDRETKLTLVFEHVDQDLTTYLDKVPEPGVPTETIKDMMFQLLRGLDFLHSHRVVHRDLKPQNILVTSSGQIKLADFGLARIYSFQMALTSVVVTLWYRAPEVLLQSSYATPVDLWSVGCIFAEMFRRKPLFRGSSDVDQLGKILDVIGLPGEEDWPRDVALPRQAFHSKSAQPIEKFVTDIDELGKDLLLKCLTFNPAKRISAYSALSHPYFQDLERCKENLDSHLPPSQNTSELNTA
T3 sequence (P30281 whole entry partner): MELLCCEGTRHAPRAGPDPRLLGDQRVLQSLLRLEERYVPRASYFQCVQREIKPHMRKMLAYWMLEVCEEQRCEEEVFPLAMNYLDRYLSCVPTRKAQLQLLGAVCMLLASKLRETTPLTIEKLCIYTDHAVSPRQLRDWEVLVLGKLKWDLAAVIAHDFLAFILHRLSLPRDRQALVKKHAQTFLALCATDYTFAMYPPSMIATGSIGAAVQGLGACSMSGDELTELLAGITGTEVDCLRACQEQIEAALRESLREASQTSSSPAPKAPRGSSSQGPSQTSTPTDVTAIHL

For the compound `CN(C)[C@@H]1CCN(c2ccc(Nc3ncc4c(n3)N(C3CCCC3)C(=O)[C@]3(CCNC3=O)C4)cn2)C1` [Example D175, (S)-8-cyclopentyl-2-((6-((R)-3-(dimethylamino)pyrrolidin-1-yl)pyridin-3-yl)amino)-5,8-dihydro-7H-spiro[pyrido[2,3-d]pyrimidine-6,3′-pyrrolidine]-2′,7-dione], the IC50 is 0.00362 µM on CDK9-CYCLINT1 (Table 4a); 0.465 µM at CDK7 CyclinH (Table 4a); 0.0571 µM at CDK2-CYCLINA (Table 4a); 0.00156 µM and 0.00083 µM on CDK4-CYCLIND1 (CDK4 CyclinD1 IC50, Table 4a); 0.0026 µM on CDK6-CYCLIND3 (Table 4a).

As to `O=C1NCC[C@@]12Cc1cnc(Nc3ccc(N4CCC(N5CCOCC5)CC4)cc3)nc1N(C1CCCC1)C2=O` [Example D182, (S)-8-cyclopentyl-2-((4-(4-morpholinopiperidin-1-yl)phenyl)amino)-5,8-dihydro-7H-spiro[pyrido[2,3-d]pyrimidine-6,3′-pyrrolidine]-2′,7-dione], the IC50 is 0.0162 µM at CDK9-CYCLINT1 (Table 4b, lower part); 0.591 µM on CDK7 CyclinH (Table 4b, lower part); 0.115 µM on CDK2-CYCLINA (Table 4b, lower part); less than 0.00056 µM on CDK4-CYCLIND1 (setting [1]); less than 0.00056 µM on CDK6-CYCLIND3 (Table 4b, lower part).

With `Cc1cc(N2CCN(C(C)C)CC2)ccc1Nc1ncc2c(n1)N(C1CCCC1)C(=O)[C@]1(CCNC1=O)C2` [Example D164, (S)-8-cyclopentyl-2-((4-(4-isopropylpiperazin-1-yl)-2-methylphenyl)amino)-5,8-dihydro-7H-spiro[pyrido[2,3-d]pyrimidine-6,3′-pyrrolidine]-2′,7-dione], the IC50 amounted to 0.0719 µM at CDK9-CYCLINT1 (Table 4a); 3.16 µM on CDK7 CyclinH (Table 4a); 0.744 µM on CDK2-CYCLINA (Table 4a); 0.00905 µM at CDK4-CYCLIND1 (CDK4 CyclinD1 IC50, Table 4a); 0.0137 µM on CDK6-CYCLIND3 (Table 4a).

With `CCN1CCN(Cc2ccc(Nc3ncc4c(n3)N(C3CCCC3)C(=O)[C@]3(CCNC3=O)C4)nc2)CC1` [Example D155, (S)-8-cyclopentyl-2-((5-((4-ethylpiperazin-1-yl)methyl)pyridin-2-yl)amino)-5,8-dihydro-7H-spiro[pyrido[2,3-d]pyrimidine-6,3′-pyrrolidine]-2′,7-dione], the concentration for half-maximal inhibition (IC50) on CDK9-CYCLINT1 (Table 4a) was found to be 1.18 µM; at CDK7 CyclinH (Table 4a) it was 14.7 µM; on CDK2-CYCLINA (Table 4a), 3.44 µM; on CDK4-CYCLIND1 (CDK4 CyclinD1 IC50, Table 4a), 0.00622 µM; on CDK6-CYCLIND3 (Table 4a) it was 0.00858 µM.

`COc1cc(Nc2ncc3c(n2)N(C2CCCC2)C(=O)[C@]2(CCNC2=O)C3)ccc1N1CCN(C(C)C)CC1` [Example D161, (S)-8-cyclopentyl-2-((4-(4-isopropylpiperazin-1-yl)-3-methoxyphenyl)amino)-5,8-dihydro-7H-spiro[pyrido[2,3-d]pyrimidine-6,3′-pyrrolidine]-2′,7-dione]: the IC50 came out at 0.00727 µM on CDK9-CYCLINT1 (Table 4a); 0.157 µM on CDK7 CyclinH (Table 4a); 0.0305 µM at CDK2-CYCLINA (Table 4a); 0.00129 µM at CDK4-CYCLIND1 (CDK4 CyclinD1 IC50, Table 4a); 0.00388 µM on CDK6-CYCLIND3 (Table 4a).

As to `O=C1NCC[C@@]12Cc1cnc(Nc3ccc(OCCN4CCCC4)c(F)c3)nc1N(C1CCCC1)C2=O` [Example D180, (S)-8-cyclopentyl-2-((3-fluoro-4-(2-(pyrrolidin-1-yl)ethoxy)phenyl)amino)-5,8-dihydro-7H-spiro[pyrido[2,3-d]pyrimidine-6,3′-pyrrolidine]-2′,7-dione], the IC50 turned out to be 0.00284 µM on CDK9-CYCLINT1 (Table 4a); 0.266 µM against CDK7 CyclinH (Table 4a); 0.0987 µM at CDK2-CYCLINA (Table 4a); 0.00179 µM on CDK4-CYCLIND1 (CDK4 CyclinD1 IC50, Table 4a); 0.00435 µM on CDK6-CYCLIND3 (Table 4a).

With `Cc1cc(Nc2ncc3c(n2)N(C2CCCC2)C(=O)[C@]2(CCNC2=O)C3)ccc1N1CCN(C)CC1` [Example D157, (S)-8-cyclopentyl-2-((3-methyl-4-(4-methylpiperazin-1-yl)phenyl)amino)-5,8-dihydro-7H-spiro[pyrido[2,3-d]pyrimidine-6,3′-pyrrolidine]-2′,7-dione], the IC50 at CDK9-CYCLINT1 (Table 4a) turned out to be 0.00367 µM; on CDK7 CyclinH (Table 4a), 0.164 µM; at CDK2-CYCLINA (Table 4a), 0.0183 µM; at CDK4-CYCLIND1 (CDK4 CyclinD1 IC50, Table 4a), 0.000908 µM; at CDK6-CYCLIND3 (Table 4a) it was 0.00151 µM.

Consider `O=C1NCC[C@@]12Cc1cnc(Nc3ccc(N4CC5(CNC5)C4)c(F)c3)nc1N(C1CCCC1)C2=O` [Example D173, (S)-8-cyclopentyl-2-((3-fluoro-4-(2,6-diazaspiro[3.3]heptan-2-yl)phenyl)amino)-5,8-dihydro-7H-spiro[pyrido[2,3-d]pyrimidine-6,3′-pyrrolidine]-2′,7-dione], for which the IC50 on CDK9-CYCLINT1 (Table 4a) came out at 0.00574 µM; against CDK7 CyclinH (Table 4a) it was 0.682 µM; on CDK2-CYCLINA (Table 4a), 0.11 µM; at CDK4-CYCLIND1 (CDK4 CyclinD1 IC50, Table 4a), 0.00537 µM; on CDK6-CYCLIND3 (Table 4a) it was 0.0116 µM.

As to `CC(C)N1CC2(CN(c3ccc(Nc4ncc5c(n4)N(C4CCCC4)C(=O)[C@]4(CCNC4=O)C5)nc3)C2)C1` [Example D171, (S)-8-cyclopentyl-2-((5-(6-isopropyl-2,6-diazaspiro[3.3]heptan-2-yl)pyridin-2-yl)amino)-5,8-dihydro-7H-spiro[pyrido[2,3-d]pyrimidine-6,3′-pyrrolidine]-2′,7-dione], the IC50 at CDK9-CYCLINT1 (Table 4a) is 0.271 µM; at CDK7 CyclinH (Table 4a), 26.5 µM; at CDK2-CYCLINA (Table 4a), 2.84 µM; on CDK4-CYCLIND1 (CDK4 CyclinD1 IC50, Table 4a), 0.00198 µM; at CDK6-CYCLIND3 (Table 4a), 0.00378 µM.

In the case of `O=C1NCC[C@@]12Cc1cnc(Nc3ccc(N4CCC(N5CCOCC5)CC4)cn3)nc1N(C1CCCC1)C2=O` [Example D181, (S)-8-cyclopentyl-2-((5-(4-morpholinopiperidin-1-yl)pyridin-2-yl)amino)-5,8-dihydro-7H-spiro[pyrido[2,3-d]pyrimidine-6,3′-pyrrolidine]-2′,7-dione], the IC50 on CDK9-CYCLINT1 (Table 4b, lower part) came out at 0.818 µM; against CDK7 CyclinH (Table 4b, lower part), 40.9 µM; at CDK2-CYCLINA (Table 4b, lower part) it was 5.82 µM; on CDK4-CYCLIND1 (setting [1]), 0.0043 µM; at CDK6-CYCLIND3 (Table 4b, lower part) it was 0.00679 µM.

`COc1cc(N2CCN(C(C)C)CC2)ccc1Nc1ncc2c(n1)N(C1CCCC1)C(=O)[C@]1(CCNC1=O)C2` [Example D167, (S)-8-cyclopentyl-2-((4-(4-isopropylpiperazin-1-yl)-2-methoxyphenyl)amino)-5,8-dihydro-7H-spiro[pyrido[2,3-d]pyrimidine-6,3′-pyrrolidine]-2′,7-dione]: the IC50 was 0.418 µM on CDK9-CYCLINT1 (Table 4a); 12 µM at CDK7 CyclinH (Table 4a); 2.9 µM at CDK2-CYCLINA (Table 4a); 0.069 µM on CDK4-CYCLIND1 (CDK4 CyclinD1 IC50, Table 4a); 0.111 µM at CDK6-CYCLIND3 (Table 4a).

`COc1cc(Nc2ncc3c(n2)N(C2CCCC2)C(=O)[C@]2(CCNC2=O)C3)ccc1N1CCNCC1` [Example D159, (S)-8-cyclopentyl-2-((3-methoxy-4-(piperazin-1-yl)phenyl)amino)-5,8-dihydro-7H-spiro[pyrido[2,3-d]pyrimidine-6,3′-pyrrolidine]-2′,7-dione]: the IC50 is 0.00734 µM on CDK9-CYCLINT1 (Table 4a); 0.318 µM on CDK7 CyclinH (Table 4a); 0.035 µM on CDK2-CYCLINA (Table 4a); 0.00162 µM on CDK4-CYCLIND1 (CDK4 CyclinD1 IC50, Table 4a); 0.00447 µM on CDK6-CYCLIND3 (Table 4a).

Take `CC(C)N1CCN(c2ccc(Nc3ncc4c(n3)N(C35CC(C3)C5)C(=O)[C@]3(CCNC3=O)C4)cc2)CC1` [Example D187, (S)-8-(bicyclo[1.1.1]pentan-1-yl)-2-((4-(4-isopropylpiperazin-1-yl)phenyl)amino)-5,8-dihydro-7H-spiro[pyrido[2,3-d]pyrimidine-6,3′-pyrrolidine]-2′,7-dione]: the IC50 on CDK9-CYCLINT1 (Table 4b, lower part) stood at 0.0607 µM; against CDK7 CyclinH (Table 4b, lower part) it was 1.68 µM; at CDK2-CYCLINA (Table 4b, lower part), 1.37 µM; at CDK4-CYCLIND1 (setting [1]) it was 0.0145 µM; on CDK6-CYCLIND3 (Table 4b, lower part), 0.0336 µM.

These data come from patent US20230048132A1, “CYCLIN-DEPENDENT KINASE INHIBITORS” (SPV THERAPEUTICS INC., priority 2018, published 2023).
